What was measured:
p38 MAPKα = p38 MAPKα (Homo sapiens (Human), UniProt Q16539); test: p38 MAPKα enzyme inhibition (FRET, Z-LYTE; Method 2); assay type: biochemical
Protocol: (§1) The enzyme inhibitory activities of compounds disclosed herein are determined by FRET using synthetic peptides labelled with both donor and acceptor fluorophores (Z-LYTE, Invitrogen Ltd., Paisley, UK).
The inhibitory activities of test compounds against the p38 MAPKα isoform (MAPK14: Invitrogen) are evaluated indirectly by determining the level of activation/phosphorylation of the down-stream molecule, MAPKAP-K2. The p38 MAPKα protein (80 ng/mL, 2.5 μL) is mixed with the test compound (2.5 μL of either 4 μg/mL, 0.4 μg/mL, 0.04 μg/mL or 0.004 μg/mL) for 2 hr at RT. […] The mixture is incubated for 1 hr at RT. Development reagent (protease, 5 μL) is added for 1 hr prior to detection in a fluorescence microplate reader (Varioskan® Flash, ThermoFisher Scientific).
This method follows the same steps as Method 1 above, but utilises a higher concentration of the p38 MAPKα protein (2.5 μL of 200 ng/mL protein instead of 2.5 μL of 80 ng/mL protein) for mixing with the test compound (tested at either 1 μg/mL, 0.1 μg/mL, 0.01 μg/mL or 0.001 μg/mL).
(§2) In all cases, the site-specific protease cleaves non-phosphorylated peptide only and eliminates the FRET signal. Phosphorylation levels of each reaction are calculated using the ratio of coumarin emission (donor) over fluorescein emission (acceptor), for which high ratios indicate high phosphorylation and low ratios indicate low phosphorylation levels. […]

c-Src = c-Src (Homo sapiens (Human), UniProt P12931); test: c-Src enzyme inhibition (FRET, Z-LYTE); assay type: biochemical
Protocol: as §1
The inhibitory activities of compounds of the invention against c-Src and Syk enzymes (Invitrogen), are evaluated in a similar fashion to that described hereinabove. The relevant enzyme (3000 ng/mL or 2000 ng/mL respectively, 2.5 μL) is incubated with the test compound (either 1 μg/mL, 0.1 μg/mL, 0.01 μg/mL, or 0.001 μg/mL, 2.5 μL each) for 2 hr at RT. The FRET peptides (8 μM. 2.5 μL), and appropriate ATP solutions (2.5 μL, 800 μM for c-Src, and 60 μM ATP for Syk) are then added to the enzymes/compound mixtures and the mixture incubated for 1 hr. Development reagent (protease, 5 μL) is added for 1 hr prior to detection in a fluorescence microplate reader (Varioskan® Flash, ThermoFisher Scientific).
as §2

IL-8 release in PBMCs = test: LPS-induced IL-8 release in PBMC cells (assay (b)); assay type: cell-based; settings: Homo sapiens, LPS-stimulated PBMCs
From the text: Peripheral blood mononuclear cells (PBMCs) from healthy subjects are separated from whole blood using a density gradient (Lymphoprep, Axis-Shield Healthcare). […] The supernatant is harvested for determination of IL-8 and TNFα concentrations by sandwich ELISA (Duo-set, R&D systems) and read on the fluorescence microplate reader (Varioskan® Flash, ThermoFisher Scientific).

Chain of p38 MAPKα (Q16539 whole entry): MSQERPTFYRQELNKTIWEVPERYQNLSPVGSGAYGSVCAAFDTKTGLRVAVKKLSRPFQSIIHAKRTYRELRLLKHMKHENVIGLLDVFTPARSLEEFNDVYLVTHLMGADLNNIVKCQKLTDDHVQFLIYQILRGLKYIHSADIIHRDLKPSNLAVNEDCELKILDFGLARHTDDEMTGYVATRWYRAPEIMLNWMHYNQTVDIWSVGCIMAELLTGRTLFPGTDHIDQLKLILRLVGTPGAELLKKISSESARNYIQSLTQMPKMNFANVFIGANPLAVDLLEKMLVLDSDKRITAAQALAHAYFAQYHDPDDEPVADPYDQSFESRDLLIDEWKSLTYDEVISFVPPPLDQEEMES
Chain of c-Src (P12931 whole entry, looked up): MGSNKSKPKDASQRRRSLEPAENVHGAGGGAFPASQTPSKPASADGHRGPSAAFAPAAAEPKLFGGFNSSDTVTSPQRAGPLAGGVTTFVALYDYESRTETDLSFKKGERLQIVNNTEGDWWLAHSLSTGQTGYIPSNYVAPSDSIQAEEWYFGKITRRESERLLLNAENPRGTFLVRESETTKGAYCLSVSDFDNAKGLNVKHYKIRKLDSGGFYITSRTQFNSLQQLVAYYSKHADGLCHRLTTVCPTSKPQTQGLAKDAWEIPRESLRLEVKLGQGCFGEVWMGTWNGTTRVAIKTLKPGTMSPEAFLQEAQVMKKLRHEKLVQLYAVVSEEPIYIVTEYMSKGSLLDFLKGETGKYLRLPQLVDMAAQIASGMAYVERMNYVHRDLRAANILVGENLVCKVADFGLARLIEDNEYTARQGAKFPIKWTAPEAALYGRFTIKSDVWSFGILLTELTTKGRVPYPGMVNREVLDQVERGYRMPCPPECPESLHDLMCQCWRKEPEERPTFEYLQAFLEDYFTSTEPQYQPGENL

For `COc1cc(Nc2cc(Oc3ccc(NC(=O)Nc4cc(C(C)(C)C)cc(NS(C)(=O)=O)c4OC)c4ccccc34)ccn2)cc(OCCOCCOCC(=O)O)c1` [Example 3], the IC50 (p38 MAPKα) was 23 nM, the IC50 (c-Src) was 18 nM and the IC50 (IL-8 release in PBMCs) was 17.3 nM.
